# Experiments:
# [1] = system: rats mâles, Sprague Dawley; assay: Anti-inflammatory activity: carrageenan-induced paw oedema (plethysmography); format: in vivo, rat; conditions: 30 to 60 min before carrageenan, paw volume 3 h after carrageenan
# Procedure: Le potentiel antiinflammatoire des composés a été recherché selon un modèle d'inflammation aigue provoquée par injection sous cutanée de carragénine au niveau de la patte postérieure du rat selon une technique inspirée de WINTER et coll. […] J. Phamacol.
# Les rats mâles, Sprague Dawley de 200 à 300 g sont randomisés en lots de 10 et reçoivent les substances à tester par administration intra péritonéale 30 à 60 minutes avant l'injection locale au niveau de la patte arrière gauche de 0,1 ml d'une suspension à 0,5 % de Carragénine dans du sérum physiologique stérile.
# La patte arrière droite servant de témoin, reçoit une injection de sérum physiologique.
# Trois heures après l'injection de la Carragénine, les animaux sont anesthésiés de façon profonde au Narcorem R et le volume des deux pattes arrières mesuré par Pléthysmographie
# Les résultats sont exprimés en pourcentage de variation de volume v% : v% =(volume patte gauche - volume patte droite)/(volume patte droite) [formula] l'activité antiinflammatoire AAI% est définie par : [drawing 54]
# [2] = system: rat; assay: Anxiolytic activity: elevated plus maze; format: in vivo; conditions: 60 min before test; for nb total d'entrées: 5 min test, control 14 ± 2; for % du temps passé dans le bras ouvert: control 22 % ± 5 %; for % d'entrées dans le bras ouvert: control 28 % ± 5 %
# Procedure: Le potentiel anxiolytique de ces produits a été recherché selon le test "elevated plus maze".
# Ce test permet d'étudier le comportement du rat, traité ou non, dans une situation de choix entre un espace clos rassurant ("bras clos") et un espace ouvert générateur d'anxiété ("bras ouvert").
# Le test consiste à compter le nombre d'entrées dans chaque bras du labyrinthe durant 5 minutes et à mesurer le temps passé dans le "bras ouvert".
# Les rats sont randomisés en lots de 8 et reçoivent les produits à tester par administration intrapéritonéale 60 minutes avant le début du test.
# [3] = system: souris; assay: Analgesic activity: Acetic Acid Writhing test; format: in vivo; conditions: 50 mg/Kg intraperitoneal, 30 min before 0,3 cm³ acetic acid 1% i.p.; control 23 ± 14
# Procedure: Le potentiel analgésique de ces produits a été recherché selon le test dit "Acetic Acid Writhing" qui est basé sur le comptage des crampes abdominales induites chez la souris par injection intra péritonéale d'acide acétique (GAIRIN et Coll J. Pharmacol. Exp. Ther 245, 955 (1988))
# Les souris randomisées en lots de 10 reçoivent les produits à tester par voie intra péritonéale 30 minutes avant l'administration intra péritonéale de 0,3 cm³ d'acide acétique à 1%
# Le nombre de crampes est compté entre la 5ème et 20ème minutes après l'injection d'acide acétique.
smiles,measurement,setting,value
"COC(=O)[C@@H]1Cc2c([nH]c3ccccc23)C2(CCN(C)CC2)N1 [[ 3-METHOXYCARBONYLE 1,2,3,4-TETRAHYDRO-β-CARBOLINE (3 S)]-1-SPIRO-4′- [ 1-METHYL PIPERIDINE]]",AAI%,[1]; 25 mg/Kg intraperitoneal,14%
same,nb total d'entrées,[2]; 100mg/Kg IP,18 ± 1
same,% du temps passé dans le bras ouvert,[2]; 100mg/Kg IP,41 % ± 4%
same,% d'entrées dans le bras ouvert,[2]; 100mg/Kg IP,44 % ± 3%
"COC(=O)[C@@H]1Cc2c([nH]c3ccccc23)C2(CCCCC2)N1 [[ 3-METHOXYCARBONYLE 1,2,3,4-TETRAHYDRO-β-CARBOLINE (3 S)]-1-SPIRO-CYCLOHEXANE]",AAI%,[1]; 50 mg/Kg intraperitoneal,14%
same,Nombre de crampes par minute (entre la 5ème et la 20ème minutes),[3],1 ± 1
same,nb total d'entrées,[2]; 50 mg/Kg IP,18 ± 2
same,% du temps passé dans le bras ouvert,[2]; 50 mg/Kg IP,40 % ± 6%
same,% d'entrées dans le bras ouvert,[2]; 50 mg/Kg IP,42 % ± 4%
